Data: the NIST ThermoML archive (doi:10.1016/j.jct.2012.06.031)

Experiment: xn = mol fraction of the nth substance listed
Conditions: 101 kPa, Liquid; for viscosity: Concentric cylinders viscometry; for mass density: Vibrating tube method

c1ccncc1 [pyridine] + CCCO
Conditions | mass density [kg/m3] | viscosity [mPa·s]
288.15 K, x1 = 0.1001 | 829.179 | 2.059
288.15 K, x1 = 0.1998 | 849.304 | 1.752
288.15 K, x1 = 0.2999 | 868.538 | 1.533
288.15 K, x1 = 0.3998 | 887.029 | 1.38
288.15 K, x1 = 0.5 | 904.882 | 1.258
288.15 K, x1 = 0.5999 | 922.323 | 1.189
288.15 K, x1 = 0.7 | 939.461 | 1.127
288.15 K, x1 = 0.8 | 956.178 | 1.091
288.15 K, x1 = 0.8998 | 972.394 | 1.065
288.15 K, x1 = 1 | 988.061 | 1.03
293.15 K, x1 = 0.1001 | 825.041 | 1.839
293.15 K, x1 = 0.1998 | 845.036 | 1.577
293.15 K, x1 = 0.2999 | 864.154 | 1.392
293.15 K, x1 = 0.3998 | 882.542 | 1.261
293.15 K, x1 = 0.5 | 900.296 | 1.156
293.15 K, x1 = 0.5999 | 917.643 | 1.096
293.15 K, x1 = 0.7 | 934.697 | 1.043
293.15 K, x1 = 0.8 | 951.331 | 1.012
293.15 K, x1 = 0.8998 | 967.464 | 0.9891
293.15 K, x1 = 1 | 983.038 | 0.9588
298.15 K, x1 = 0.1001 | 820.881 | 1.651
298.15 K, x1 = 0.1998 | 840.744 | 1.426
298.15 K, x1 = 0.2999 | 859.747 | 1.269
298.15 K, x1 = 0.3998 | 878.034 | 1.157
298.15 K, x1 = 0.5 | 895.691 | 1.066
298.15 K, x1 = 0.5999 | 912.947 | 1.014
298.15 K, x1 = 0.7 | 929.913 | 0.9678
298.15 K, x1 = 0.8 | 946.465 | 0.942
298.15 K, x1 = 0.8998 | 962.52 | 0.9212
298.15 K, x1 = 1 | 978.006 | 0.8943
303.15 K, x1 = 0.1001 | 816.69 | 1.488
303.15 K, x1 = 0.1998 | 836.425 | 1.291
303.15 K, x1 = 0.2999 | 855.316 | 1.165
303.15 K, x1 = 0.3998 | 873.5 | 1.064
303.15 K, x1 = 0.5 | 891.065 | 0.9865
303.15 K, x1 = 0.5999 | 908.231 | 0.9414
303.15 K, x1 = 0.7 | 925.114 | 0.9013
303.15 K, x1 = 0.8 | 941.586 | 0.879
303.15 K, x1 = 0.8998 | 957.564 | 0.8608
303.15 K, x1 = 1 | 972.967 | 0.8355
308.15 K, x1 = 0.1001 | 812.466 | 1.355
308.15 K, x1 = 0.1998 | 832.074 | 1.179
308.15 K, x1 = 0.2999 | 850.857 | 1.065
308.15 K, x1 = 0.3998 | 868.942 | 0.9819
308.15 K, x1 = 0.5 | 886.415 | 0.9149
308.15 K, x1 = 0.5999 | 903.494 | 0.8753
308.15 K, x1 = 0.7 | 920.29 | 0.8408
308.15 K, x1 = 0.8 | 936.687 | 0.8222
308.15 K, x1 = 0.8998 | 952.593 | 0.8059
308.15 K, x1 = 1 | 967.913 | 0.7837
313.15 K, x1 = 0.1001 | 808.203 | 1.205
313.15 K, x1 = 0.1998 | 827.676 | 1.076
313.15 K, x1 = 0.2999 | 846.364 | 0.9804
313.15 K, x1 = 0.3998 | 864.355 | 0.9082
313.15 K, x1 = 0.5 | 881.735 | 0.8506
313.15 K, x1 = 0.5999 | 898.73 | 0.8167
313.15 K, x1 = 0.7 | 915.449 | 0.786
313.15 K, x1 = 0.8 | 931.765 | 0.7718
313.15 K, x1 = 0.8998 | 947.604 | 0.7566
313.15 K, x1 = 1 | 962.849 | 0.7354
318.15 K, x1 = 0.1001 | 803.899 | 1.103
318.15 K, x1 = 0.1998 | 823.264 | 0.9855
318.15 K, x1 = 0.2999 | 841.834 | 0.9038
318.15 K, x1 = 0.3998 | 859.731 | 0.8426
318.15 K, x1 = 0.5 | 877.027 | 0.7926
318.15 K, x1 = 0.5999 | 893.938 | 0.7629
318.15 K, x1 = 0.7 | 910.581 | 0.7363
318.15 K, x1 = 0.8 | 926.83 | 0.7244
318.15 K, x1 = 0.8998 | 942.596 | 0.711
318.15 K, x1 = 1 | 957.769 | 0.6912
323.15 K, x1 = 0.1001 | 799.541 | 1.009
323.15 K, x1 = 0.1998 | 818.793 | 0.9116
323.15 K, x1 = 0.2999 | 837.265 | 0.844
323.15 K, x1 = 0.3998 | 855.071 | 0.7875
323.15 K, x1 = 0.5 | 872.286 | 0.7452
323.15 K, x1 = 0.5999 | 889.121 | 0.719
323.15 K, x1 = 0.7 | 905.688 | 0.6954
323.15 K, x1 = 0.8 | 921.867 | 0.6813
323.15 K, x1 = 0.8998 | 937.566 | 0.6741
323.15 K, x1 = 1 | 952.673 | 0.6507
